Assay results taken from patent US9133148B2, “Carbamate compounds and of making and using same” (Abide Therapeutics, Inc., priority 2012, dated 2015).

How the values were obtained:
[1] = biological target: Human MAGL (Homo sapiens (Human), UniProt Q99685); assay: Competitive ABPP with recombinant human MAGL expressed in HEK293T cells; format: biochemical; conditions: hMAGL in HEK293T cell lysates
Method: (§1) Proteomes (mouse brain membrane fraction or cell lysates) ([…], 1.0 mg/mL total protein concentration) were preincubated with varying concentrations of inhibitors at 37° C. After 30 min, FP-Rh (1.0 μL, 50 μM in DMSO) was added and the mixture was incubated for another 30 min at 37° C. Reactions were quenched with SDS loading buffer (50 μL—4×) and run on SDS-PAGE.
Recombinant Expression of Human MAGL in HEK293T Cells.
Cell lysates were diluted with mock proteomes for use in competitive ABPP experiments.

[2] = biological target: T1, MAGL (Mus musculus (Mouse), UniProt O35678); assay: In vitro competitive activity-based protein profiling (FP-Rh), mouse MAGL; format: biochemical; conditions: mouse brain membrane proteome
Method: (§2) In Vitro Competitive Activity-Based Protein Profiling.
as §1

[3] = biological target: T2, FAAH (Mus musculus (Mouse), UniProt O08914); assay: In vitro competitive activity-based protein profiling (FP-Rh), mouse FAAH; format: biochemical; conditions: mouse brain membrane proteome
Method: as §2, §1

[4] = biological target: T3, ABHD6 (Mus musculus (Mouse), UniProt Q8R2Y0); assay: In vitro competitive activity-based protein profiling (FP-Rh), mouse ABHD6; format: biochemical; conditions: mouse brain membrane proteome
Method: as §2, §1

[5] = biological target: Mouse brain MAGL (Mus musculus (Mouse), UniProt O35678); assay: Mouse brain proteomes from inhibitor treated mice (oral gavage, ABPP of brain MAGL); format: in vivo; conditions: 4 h following administration
Method: Preparation of Mouse Brain Proteomes from Inhibitor Treated Mice.
Inhibitors were administered to wild-type C57Bl/6J by oral gavage in a vehicle of polyethylene glycol.

[6] = biological target: T3, ABHD6; assay: Competitive ABPP, % inhibition at 1 uM, ABHD6; format: biochemical
Method: as §2, §1

[7] = biological target: T2, FAAH; assay: Competitive ABPP, % inhibition at 1 uM, FAAH; format: biochemical
Method: as §2
as §1, with “SDS-PAGE. Following gel imaging, serine hydrolase activity was determined by measuring fluorescent intensity of gel bands corresponding to MAGL, ABHD6 and FAAH using ImageJ 1.43u software.” for “SDS-PAGE.”

[8] = biological target: T1, MAGL; assay: Competitive ABPP, % inhibition at 1 uM, MAGL; format: biochemical
Method: as §2, §1

T1 sequence (O35678 whole entry): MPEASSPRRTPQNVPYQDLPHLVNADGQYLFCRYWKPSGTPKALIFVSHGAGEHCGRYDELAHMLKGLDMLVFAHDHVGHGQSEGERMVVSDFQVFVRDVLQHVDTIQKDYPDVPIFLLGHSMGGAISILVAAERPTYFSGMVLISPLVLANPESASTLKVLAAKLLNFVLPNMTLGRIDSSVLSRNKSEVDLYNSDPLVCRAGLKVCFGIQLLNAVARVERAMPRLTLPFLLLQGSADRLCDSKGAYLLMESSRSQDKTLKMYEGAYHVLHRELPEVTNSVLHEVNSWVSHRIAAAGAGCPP
Sequence of Mouse brain MAGL (O35678 whole entry): as above
Sequence of Human MAGL (Q99685 whole entry): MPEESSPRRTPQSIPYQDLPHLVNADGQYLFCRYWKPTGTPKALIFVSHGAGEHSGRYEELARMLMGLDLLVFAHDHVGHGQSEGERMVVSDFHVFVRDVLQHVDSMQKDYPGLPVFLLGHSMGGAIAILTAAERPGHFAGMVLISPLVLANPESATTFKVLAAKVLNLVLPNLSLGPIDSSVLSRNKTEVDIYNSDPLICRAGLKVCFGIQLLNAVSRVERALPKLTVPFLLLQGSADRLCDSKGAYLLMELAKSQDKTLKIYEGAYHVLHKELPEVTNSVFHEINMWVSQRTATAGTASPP
T2 sequence (O08914 whole entry): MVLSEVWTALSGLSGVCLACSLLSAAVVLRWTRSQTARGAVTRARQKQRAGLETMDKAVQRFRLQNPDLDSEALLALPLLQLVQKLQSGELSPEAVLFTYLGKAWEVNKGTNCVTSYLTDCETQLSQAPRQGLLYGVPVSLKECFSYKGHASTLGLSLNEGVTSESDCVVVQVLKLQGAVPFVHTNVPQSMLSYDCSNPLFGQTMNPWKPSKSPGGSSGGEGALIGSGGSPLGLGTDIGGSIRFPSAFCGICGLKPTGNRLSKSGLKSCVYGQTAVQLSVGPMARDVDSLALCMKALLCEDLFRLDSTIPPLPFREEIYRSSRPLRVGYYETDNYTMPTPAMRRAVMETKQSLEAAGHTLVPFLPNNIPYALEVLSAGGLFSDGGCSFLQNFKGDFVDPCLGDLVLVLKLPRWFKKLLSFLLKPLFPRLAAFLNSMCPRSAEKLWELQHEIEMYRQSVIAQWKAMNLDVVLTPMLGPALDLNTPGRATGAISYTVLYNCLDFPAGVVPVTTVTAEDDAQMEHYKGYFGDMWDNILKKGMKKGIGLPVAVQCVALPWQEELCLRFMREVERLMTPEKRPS
T3 sequence (Q8R2Y0 whole entry): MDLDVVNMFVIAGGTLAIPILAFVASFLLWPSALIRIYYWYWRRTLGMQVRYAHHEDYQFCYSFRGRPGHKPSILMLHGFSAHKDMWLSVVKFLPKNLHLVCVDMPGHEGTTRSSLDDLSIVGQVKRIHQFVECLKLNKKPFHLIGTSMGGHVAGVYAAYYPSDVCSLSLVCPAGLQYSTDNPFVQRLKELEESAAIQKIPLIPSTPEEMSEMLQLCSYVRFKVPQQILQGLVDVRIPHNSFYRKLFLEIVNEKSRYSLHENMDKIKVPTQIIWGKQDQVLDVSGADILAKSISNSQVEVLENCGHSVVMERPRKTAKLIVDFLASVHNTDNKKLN

IC50 [1] [nM]	IC50 ([2]; competitive ABPP) [nM]	IC50 ([3]; competitive ABPP) [nM]	IC50 ([4]; competitive ABPP) [nM]	Structure (SMILES)	also measured
100 to 1000	100 to 1000	> 10000	> 1000	N#Cc1ccc(S(=O)(=O)N2CCN(C(=O)OC(C(F)(F)F)C(F)(F)F)CC2)cc1 [Example 4d, 1,1,1,3,3,3-hexafluoropropan-2-yl 4-((4-cyanophenyl)sulfonyl)-piperazine-1-carboxylate]	–
–	–	–	–	O=C(OC(C(F)(F)F)C(F)(F)F)N1CCN(Cc2ccc(Cl)cc2N2CCN3CCC[C@@H]3C2)CC1 [Example 9bi, (R)-1,1,1,3,3,3-hexafluoropropan-2-yl 4-(4-chloro-2-(hexahydropyrrolo[1,2-a]pyrazin-2(1H)-yl)benzyl)piperazine-1-carboxylate]	IC50 ([2]; competitive ABPP (Table 7)): < 100 nM; IC50 ([3]; competitive ABPP (Table 7)): > 10000 nM; IC50 ([4]; competitive ABPP (Table 7)): > 1000 nM; Mouse brain MAGL (% inhibition at 5 mg/kg, p.o.) [5]: 50%
–	–	–	–	O=C(OC(C(F)(F)F)C(F)(F)F)N1CCN(Cc2cccc(Cl)c2N2CCCC2)CC1 [Example 9ar, 1,1,1,3,3,3-hexafluoropropan-2-yl 4-(3-chloro-2-(pyrrolidin-1-yl)benzyl)piperazine-1-carboxylate]	IC50 ([2]; competitive ABPP (Table 7)): < 100 nM; IC50 ([3]; competitive ABPP (Table 7)): > 10000 nM; IC50 ([4]; competitive ABPP (Table 7)): > 1000 nM; Mouse brain MAGL (% inhibition at 5 mg/kg, p.o.) [5]: 75%
–	–	–	–	O=C(OC(C(F)(F)F)C(F)(F)F)N1CCN(Cc2ccc(Cl)cc2N2CCC3(CCOCC3)C2)CC1 [Example 9av, 1,1,1,3,3,3-hexafluoropropan-2-yl 4-(4-chloro-2-(8-oxa-2-azaspiro[4.5]decan-2-yl)benzyl)piperazine-1-carboxylate]	IC50 ([2]; competitive ABPP (Table 7)): < 100 nM; IC50 ([3]; competitive ABPP (Table 7)): > 10000 nM; IC50 ([4]; competitive ABPP (Table 7)): > 1000 nM; Mouse brain MAGL (% inhibition at 5 mg/kg, p.o.) [5]: 75%
–	100 to 1000	> 10000	< 100	CNC(=O)C(OC(=O)N1CCN(C(c2ccc(Cl)cc2)c2ccc(Cl)cc2)CC1)C(F)(F)F (centres unmarked) [Example 6j, 1,1,1-trifluoro-3-(methylamino)-3-oxopropan-2-yl 4-(bis(4-chlorophenyl)methyl)piperazine-1-carboxylate]	Mouse brain MAGL (% inhibition at 20 mg/kg, p.o.) ([5]; 20 mg/kg): >95%
–	–	–	–	O=C(OC(C(F)(F)F)C(F)(F)F)N1CCN(Cc2ccc(-c3ccccc3)cc2C(=O)N2CCCC2)CC1 [Example 11y, 1,1,1,3,3,3-hexafluoropropan-2-yl 4-([4-phenyl-2-[(pyrrolidin-1-yl)carbonyl]phenyl]methyl)piperazine-1-carboxylate]	IC50 ([2]; competitive ABPP (Table 7)): < 100 nM; IC50 ([3]; competitive ABPP (Table 7)): > 10000 nM; IC50 ([4]; competitive ABPP (Table 7)): > 1000 nM; Mouse brain MAGL (% inhibition at 5 mg/kg, p.o.) [5]: 75%
> 1000	> 1000	> 10000	> 1000	O=C(OC(C(F)(F)F)C(F)(F)F)N1CCN(C(=O)c2ccc(-c3ccccc3)cc2)CC1 [Example 3c, 1,1,1,3,3,3-hexafluoropropan-2-yl 4-([1,1′-biphenyl]-4-carbonyl)-piperazine-1-carboxylate]	–
100 to 1000	100 to 1000	> 10000	> 1000	CN(Cc1ccc2c(c1)OCO2)C(=O)OC(C(F)(F)F)C(F)(F)F [Example 3i, 1,1,1,3,3,3-hexafluoropropan-2-yl(benzo[d][1,3]dioxol-5-ylmethyl)-(methyl)carbamate]	–
–	–	–	–	O=C(OC(C(F)(F)F)C(F)(F)F)N1CCN(Cc2ccc(Cl)cc2N2CCC2)CC1 [Example 9ay, 1,1,1,3,3,3-hexafluoropropan-2-yl 4-(2-(azetidin-1-yl)-4-chlorobenzyl)piperazine-1-carboxylate]	IC50 ([2]; competitive ABPP (Table 7)): < 100 nM; IC50 ([3]; competitive ABPP (Table 7)): > 10000 nM; IC50 ([4]; competitive ABPP (Table 7)): > 1000 nM; Mouse brain MAGL (% inhibition at 5 mg/kg, p.o.) [5]: 50%
100 to 1000	100 to 1000	> 10000	100 to 1000	O=C(OC(C(F)(F)F)C(F)(F)F)N1CCN(S(=O)(=O)c2ccccc2)CC1 [Example 4a, 1,1,1,3,3,3-hexafluoropropan-2-yl 4-(phenylsulfonyl)piperazine-1-carboxylate]	–
< 100	< 100	> 10000	100 to 1000	O=C(OC(C(F)(F)F)C(F)(F)F)N1CCN(C(c2ccc3c(c2)CCO3)c2ccc3c(c2)CCO3)CC1 [Example 2e, 1,1,1,3,3,3-hexafluoropropan-2-yl 4-(bis(2,3-dihydrobenzofuran-5-yl)methyl)piperazine-1-carboxylate]	–
> 1000	< 100	> 10000	> 1000	O=C(OC(C(F)(F)F)C(F)(F)F)N1CCN(S(=O)(=O)c2ccc3ccccc3c2)CC1 [Example 4h, 1,1,1,3,3,3-hexafluoropropan-2-yl 4-(naphthalen-2-ylsulfonyl)-piperazine-1-carboxylate]	–
100 to 1000	100 to 1000	> 10000	> 1000	O=C(OC(C(F)(F)F)C(F)(F)F)N1CCN(S(=O)(=O)c2cccc(C(F)(F)F)c2)CC1 [Example 4i, 1,1,1,3,3,3-hexafluoropropan-2-yl 4-((3-(trifluoromethyl)phenyl)-sulfonyl)piperazine-1-carboxylate]	–
100 to 1000	100 to 1000	> 10000	100 to 1000	Cc1ccccc1S(=O)(=O)N1CCN(C(=O)OC(C(F)(F)F)C(F)(F)F)CC1 [Example 4g, 1,1,1,3,3,3-hexafluoropropan-2-yl 4-(o-tolylsulfonyl)piperazine-1-carboxylate]	–
< 100	100 to 1000	> 10000	100 to 1000	Cc1nc(-c2cccc(CN(C)C(=O)OC(C(F)(F)F)C(F)(F)F)c2)no1 [Example 3j, 1,1,1,3,3,3-hexafluoropropan-2-yl methyl(3-(5-methyl-1,2,4-oxadiazol-3-yl)benzyl)carbamate]	–
> 1000	> 1000	> 10000	> 1000	CC(C)c1cc(C(C)C)c(S(=O)(=O)N2CCN(C(=O)OC(C(F)(F)F)C(F)(F)F)CC2)c(C(C)C)c1 [Example 4f, 1,1,1,3,3,3-hexafluoropropan-2-yl 4-((2,4,6-triisopropylphenyl)-sulfonyl)piperazine-1-carboxylate]	–
< 100	< 100	> 10000	100 to 1000	O=C(OC(C(F)(F)F)C(F)(F)F)N1CCC(=C(c2ccc3c(c2)OCO3)c2ccc3c(c2)OCO3)CC1 [Example 1d, 1,1,1,3,3,3-hexafluoropropan-2-yl 4-(bis(benzo[d][1,3]dioxol-5-yl)methylene)piperidine-1-carboxylate]	–
< 100	> 1000	> 10000	> 1000	Cc1cc(N2CCN(C(=O)OC(C(F)(F)F)C(F)(F)F)CC2)c2ccccc2n1 [Example 3h, 1,1,1,3,3,3-hexafluoropropan-2-yl 4-(2-methylquinolin-4-yl)piperazine-1-carboxylate]	–
< 100	100 to 1000	> 10000	> 1000	O=C(OC(C(F)(F)F)C(F)(F)F)N1CCN(Cc2ccc(-c3ccccc3)cc2)CC1 [Example 3b, 1,1,1,3,3,3-hexafluoropropan-2-yl 4-([1,1′-biphenyl]-4-ylmethyl)-piperazine-1-carboxylate]	–
> 1000	> 1000	> 10000	> 1000	CC(=O)Nc1ccc(S(=O)(=O)N2CCN(C(=O)OC(C(F)(F)F)C(F)(F)F)CC2)cc1 [Example 4e, 1,1,1,3,3,3-hexafluoropropan-2-yl 4-((4-acetamidophenyl)sulfonyl)-piperazine-1-carboxylate]	–
< 100	< 100	> 10000	> 1000	O=C(OC(C(F)(F)F)C(F)(F)F)N1CCN(C(c2ccc3c(c2)OC(F)(F)O3)c2ccc3c(c2)OC(F)(F)O3)CC1 [Example 2f, 1,1,1,3,3,3-hexafluoropropan-2-yl 4-(bis(2,2-difluorobenzo[d][1,3]-dioxol-5-yl)methyl)piperazine-1-carboxylate]	–
–	–	–	–	Cc1ccccc1-c1ccc(CN2CCN(C(=O)OC(C(F)(F)F)C(F)(F)F)CC2)c(C)n1 [Example 11b, 1,1,1,3,3,3-hexafluoropropan-2-yl 4-[[2-methyl-6-(2-methylphenyl)pyridin-3-yl]methyl]piperazine-1-carboxylate]	inhibition at 1 µM [6]: 25 to 75%; inhibition at 1 µM [7]: < 25%; inhibition at 1 µM [8]: > 75%
< 100	< 100	> 10000	100 to 1000	Cc1ccc(S(=O)(=O)N2CCN(C(=O)OC(C(F)(F)F)C(F)(F)F)CC2)cc1 [Example 4b, 1,1,1,3,3,3-hexafluoropropan-2-yl 4-tosylpiperazine-1-carboxylate]	–

Structure (SMILES)	IC50 [1] [nM]	IC50 ([2]; competitive ABPP) [nM]	IC50 ([3]; competitive ABPP) [nM]	IC50 ([4]; competitive ABPP) [nM]	also measured
COc1ccc(N2CCN(C(=O)OC(C(F)(F)F)C(F)(F)F)CC2)cc1 [Example 3e, 1,1,1,3,3,3-hexafluoropropan-2-yl 4-(4-methoxyphenyl)piperazine-1-carboxylate]	100 to 1000	> 1000	> 10000	100 to 1000	–
